Laboratory results published in patent publication US6524584B2, “Saponin compositions and uses thereof” (priority 1996, dated 2003).

Key:
E.G7-OVA target cells = assay: Cytotoxic T-lymphocyte (CTL) assay, 51Cr release, splenic effector cells from immunized mice; format: in vivo, C57BL/6 mice; conditions: s.c. with ovalbumin, weeks 1, 3, 5
Protocol: (§1) All experiments were carried out in C57BL/6 mice (female, 8-12 weeks of age). The synergistic adjuvant-effect of the QS-21/QS-7 mixtures was assessed by two parameters: (1) the ability of these mixtures to improve antibody titers to a subunit antigen, ovalbumin, in mice; and (2) the ability of these mixtures to improve an ovalbumin-specific cytotoxic T lymphocyte (killer cell) response in mice.
The experimental techniques were the following. The mice were immunized subcutaneously at week 1, 3, and 5 with 0.2 ml of the indicated formulations in phosphate-buffered saline. Mice were immunized in groups of five. Sera and spleens were harvested at weeks 7 to 9. Sera was assayed for anti-ovalbumin antibody response by enzyme immunoassay. Briefly, a 96 well Immulon plate was coated with 10 μg/ml ovalbumin in phosphate-buffered saline (PBS) overnight at 4° C. These plates were blocked with 10% normal goat serum in PBS (diluent) for one hour at room temperature. Serial 1:10 dilutions of serum were made in diluent and were incubated on the plates for one hour at room temperature or overnight at 4° C. An enzyme conjugate of anti-mouse IgG (or anti-mouse IgG subclass) was diluted in diluent and incubated on the plate. A calorimetric enzyme substrate, tetramethylbenzidine, was used to assay for binding of anti-ovalbumin antibody. Spleens from immunized mice were used to assay for the cytotoxic T lymphocyte (CTL) response. The effector cells for the (CTL) assay were splenic mononuclear cells from the harvested spleens. The antigen-positive target cells for the assay were E.G7-OVA cells, which are an MHC class II antigen-negative EL4 mouse cell line, transfected with the ovalbumin gene. […] EL4 cells were used as an ovalbumin-negative target cell line. Prior to assay, splenic mononuclear cells were stimulated with antigen to induce maturation of precursor CTL in the effector cell population. The antigens used for stimulation were mitomycin C treated E.G7-OVA cells (incubated with spleen cells at a ratio of 20:1 spleen cells: E.G7-OVA cells) or denatured ovalbumin (25 μg/ml). […]

ovalbumin [1] = assay: Serum anti-ovalbumin antibody response by enzyme immunoassay after immunization; format: in vivo, C57BL/6 mice; conditions: saponin dose 0.625 μg, alone
Protocol: as §1
The experimental techniques were the following. The mice were immunized subcutaneously at week 1, 3, and 5 with 0.2 ml of the indicated formulations in phosphate-buffered saline. Mice were immunized in groups of five. Sera and spleens were harvested at weeks 7 to 9. Sera was assayed for anti-ovalbumin antibody response by enzyme immunoassay. Briefly, a 96 well Immulon plate was coated with 10 μg/ml ovalbumin in phosphate-buffered saline (PBS) overnight at 4° C. These plates were blocked with 10% normal goat serum in PBS (diluent) for one hour at room temperature. Serial 1:10 dilutions of serum were made in diluent and were incubated on the plates for one hour at room temperature or overnight at 4° C. An enzyme conjugate of anti-mouse IgG (or anti-mouse IgG subclass) was diluted in diluent and incubated on the plate. A calorimetric enzyme substrate, tetramethylbenzidine, was used to assay for binding of anti-ovalbumin antibody. […]

ovalbumin [2] = conditions: doses below 2.5 μg, mice; cited from earlier work
ovalbumin [3] = conditions: at 2.5 μg or lower, mice; cited from earlier work
[4] = system: bovine serum albumin and cytochrome b5; conditions: mice; cited from earlier work
cytochrome b5 = conditions: saponin doses of 20 μg; cited from earlier work
mice = conditions: mouse, in vivo; cited from earlier work

QS-21
stimulating a CTL response (E.G7-OVA target cells; saponin dose 0.625 μg): ineffective
stimulating a CTL response (E.G7-OVA target cells; saponin dose 1.25 μg): ineffective
stimulating a CTL response (E.G7-OVA target cells; saponin dose 20 μg): highly effective
antibody titer compared with no adjuvant (ovalbumin [1]): neither 10 μg QS-7 or 0.625 μg QS-21, individually, yields a titer that is higher than no adjuvant
adjuvant for raising an antibody response to ovalbumin (ovalbumin [2]): ineffective
CTL response to ovalbumin (ovalbumin [3]): minimal
antibody responses to bovine serum albumin and cytochrome b5 [4]: stimulate potent antibody responses
IgG2a response to cytochrome b5 (cytochrome b5): stimulate IgG2a response
toxicity in mice (mice): least toxic

QS-17
antibody responses to bovine serum albumin and cytochrome b5 [4]: stimulate potent antibody responses
IgG2a response to cytochrome b5 (cytochrome b5): stimulate IgG2a response

QS-18
antibody responses to bovine serum albumin and cytochrome b5 [4]: stimulate potent antibody responses
IgG2a response to cytochrome b5 (cytochrome b5): stimulate IgG2a response
